Measured values as given in publication PMC9029538, “Dosing Colistimethate Every 8 h Results in Higher Plasma Concentrations of Active Colistin Than Every 12-Hourly Dosing without Increase in Nephrotoxicity: A Phase 1 Pharmacokinetics Trial in Healthy Adult Volunteers” (Antibiotics, 2022).
Where two headings read alike, the source gives them in different places. Where a SMILES comes first, the peptide text is derived from it. Bridges are numbered along the chain shown (N, C = ends). [ ]: non-standard residue; d: D form. The star is where a group is joined. Heptanoyl(6-Me) = CC(C)CCCCC(=O)*; X1 = CC[C@H](C)CCCCC(=O)*; Dab = NCC[C@H](N)C(=O)O

Assays:
[1] = Period 3, Cohort 1: IV 2.5 mg/kg q12h x 2 doses + aerosol 75 mg colistin base activity q12h x 2 doses; plasma after final dose; median (min-max)
Experimental: (§1) During dosing Period 1, subjects in Cohorts 1, 2, and 3 received 2 to 3 doses of IV CMS (total exposure 5–10 mg/kg) based on the specific cohort regimen. During dosing Period 2, the same subjects then received 2 to 4 doses of 75 mg of CMS via aerosolized administration, and during dosing Period 3, subjects received a combination of IV and aerosolized CMS based on the specific cohort regimen. Each dosing period was followed by a washout period of at least 3 days (Table 1).
(§2) For all plasma PK collections, 3 mL samples of whole blood were drawn into collection tubes containing sodium heparin and placed immediately on ice at specified time intervals. […] The blood was centrifuged at 2500× g within 2 h of collection, and the plasma fraction was removed and frozen at −70 °C for shipment to the Analytical Pharmacology Laboratory at the University of Toledo.
(§3) The PK analysis was conducted using Phoenix™ WinNonlin® Version 6.2 (Pharsight, a Certara Company).
Concentration versus time profiles were investigated for each of the four colistin analytes. These profiles were augmented by the inclusion of estimated concentrations at additional time points, including dosing Period 1—immediately prior to the final IV dose; dosing Period 3—immediately prior to the final IV dose; and after the final IV dose. […] In addition, the presence or absence of a proportionality dose-dependent effect was determined.

[2] = clinical
Experimental: as §1, §2, §3
(§4) Concentration versus time profiles were investigated for each of the four colistin analytes. These profiles were augmented by the inclusion of estimated concentrations at additional time points, including dosing Period 1—immediately prior to the final IV dose; dosing Period 3—immediately prior to the final IV dose; and after the final IV dose. The following PK parameters were estimated for each: maximum observed concentration (Cmax), area under the plasma concentration versus time curve, AUC (e.g., AUC 0–inf), AUC 0–t) versus time curve, time to maximum observed concentration (Tmax), elimination half-life (t1/2), slope of the post-distributive terminal portion of plasma concentration versus time curve (Kel), total body clearance/bioavailability (CL/F), and the apparent steady-state volume of distribution/bioavailability ([…]). The concentrations of intravenously administered CMS, aerosolized drug, and both delivery methods used simultaneously were compared. In addition, the presence or absence of a proportionality dose-dependent effect was determined.

[3] = Plasma pharmacokinetics after IV CMS (Period 1); details: for AUC(0-t) / AUC(0-inf) / clearance / Cmax / Vd / half-life / Tmax: human, in vivo, iv; for clearance: CL; for Vd: Vdss; for Tmax: median (min-max)
Experimental: as §1, §2, §3, §4

[4] = Neurotoxicity (paresthesias, ataxia, SARA scores); assay type: in vivo, healthy adult volunteers; details: Cohort 1, 2.5 mg/kg q12h × 2 doses; Periods 1 and 3 combined; seven of eighteen
Experimental: (§5) Safety assessments for TEAEs were conducted, including physical examinations (including neurological evaluations), […], vital signs, clinical laboratory tests, selected biomarkers for acute kidney injury (see section on kidney biomarkers), spirometry, and ECG measurements (see Supplementary Data S5 and S6 for clinical laboratory evaluations and schedule of events). If symptoms of ataxia were present, SARA (Scale for the Assessment and Rating of Ataxia, according to Schmitz-Hübsch et al.) assessment forms were completed to assess their severity.

[5] = test system: A. baumannii or P. aeruginosa; details: retrospective study, cited from earlier work
Text: Whether the aerosolized administration of CMS translates into greater drug efficacy against MDROs in the management of HAP/VAP caused by MDROs, however, still remains a matter of controversy, as is the issue of the efficacy of colistin combination therapy. A retrospective study of pneumonia patients who received aerosolized colistin therapy for a median of 14 days reported the microbiological eradication of the causative MDRO (A. baumannii or P. aeruginosa) in 18 out of 21 cases. This high rate of eradication corroborates another retrospective study in which 37 out of 40 patients who re ...

[6] = Nephrotoxicity (serum creatinine); assay type: in vivo, healthy adult volunteers; set-up: serum creatinine increase (absolute): unit not given here; details: for serum creatinine increase (absolute) / serum creatinine increase (percent): 24 h post first dose
Experimental: Serum samples for kidney biomarkers were obtained for serum cystatin C, NGAL, and serum β microglobulin levels. Urine samples were obtained for urine protein, creatinine, and microalbumin excretion (see Supplementary Tables S1–S10 and Data S1–S6).
as §5

[7] = Period 2, Cohort 2: aerosol 75 mg colistin base activity q8h x 3 doses, plasma after final dose, mean (SD), SD
[8] = 2.5 mg/kg, Period 1, Cohort 1: IV 2.5 mg/kg colistin base activity q12h x 2 doses, plasma after final dose, mean (SD), SD
[9] = 2.5 mg/kg, Period 1, Cohort 2: IV 2.5 mg/kg colistin base activity q8h x 3 doses, plasma after final dose, mean (SD), SD
[10] = 2.5 mg/kg, t1/2, Period 1, Cohort 1: IV 2.5 mg/kg colistin base activity q12h x 2 doses, plasma after final dose, mean (SD), SD
[11] = 2.5 mg/kg, t1/2, Period 1, Cohort 2: IV 2.5 mg/kg colistin base activity q8h x 3 doses, plasma after final dose, mean (SD), SD
[12] = 2.5 mg/kg, Period 1, Cohort 1: IV 2.5 mg/kg colistin base activity q12h x 2 doses, plasma after final dose
[13] = 2.5 mg/kg, Period 1, Cohort 2: IV 2.5 mg/kg colistin base activity q8h x 3 doses, plasma after final dose
[14] = 3.3 mg/kg, Period 1, Cohort 3: IV 3.3 mg/kg colistin base activity q8h x 3 doses, plasma after final dose, mean (SD), SD
[15] = 3.3 mg/kg, t1/2, Period 1, Cohort 3: IV 3.3 mg/kg colistin base activity q8h x 3 doses, plasma after final dose, mean (SD), SD
[16] = 3.3 mg/kg, Period 1, Cohort 3: IV 3.3 mg/kg colistin base activity q8h x 3 doses, plasma after final dose
[17] = elimination t1/2 (half-life, as stated in text), plasma
[18] = Cohort 3, first of four subjects
[19] = Cohort 3, fourth of four subjects
[20] = Cohort 3, second of four subjects
[21] = Cohort 3, third of four subjects

Row | Compound | AUC(0-t) [3, 8] | AUC(0-t) [3, 9] | AUC(0-inf) [3, 8] | AUC(0-inf) [3, 9] | clearance [3, 8] | clearance [3, 9] | Cmax [3, 8] | Cmax [3, 9] | Vd [3, 8] | Vd [3, 9] | half-life [3, 10] | half-life [3, 11] | Tmax [3, 12] | Tmax [3, 13] | AUC(0-t) [3, 14] | AUC(0-inf) [3, 14] | clearance [3, 14] | Cmax [3, 14] | Vd [3, 14] | half-life [3, 15] | also measured
1 | CC[C@H](C)CCCCC(=O)N[C@@H](CCN)C(=O)N[C@H](C(=O)N[C@@H](CCN)C(=O)N[C@H]1CCNC(=O)[C@H]([C@@H](C)O)NC(=O)[C@H](CCN)NC(=O)[C@H](CCN)NC(=O)[C@H](CC(C)C)NC(=O)[C@@H](CC(C)C)NC(=O)[C@H](CCN)NC1=O)[C@@H](C)O [colistin A] (X1-[Dab]T[Dab][Dab][Dab][dL]L[Dab][Dab]T; lactam 4-C) | 21800 ng·h/mL | 30400 ng·h/mL | 23800 ng·h/mL | 33000 ng·h/mL | 103 mL/min | 74.5 mL/min | 3950 ng/mL | 5360 ng/mL | 29.5 L | 21.7 L | 3.32 h | 3.47 h | 1.02 h | 0.6 h | 49100 ng·h/mL | 52400 ng·h/mL | 64.5 mL/min | 8740 ng/mL | 22.2 L | 4.22 h | Tmax [1]: 1.43 (0.883 – 2.38) h; t1/2 ([2]; Period 2, Cohort 1: aerosol 75 mg colistin base activity q12h x 2 doses, plasma after final dose, mean (SD)): 8.37 h; CL/F [2, 7]: 8.12 (0.628) L/h; t1/2 [2, 7]: 7.81 (1.33) h; t1/2 ([2]; Period 2, Cohort 3: aerosol 75 mg colistin base activity q6h x 4 doses, plasma after final dose, mean (SD), SD): 26.0 (31.2) h; circulating plasma concentrations following aerosol administration alone ([2]; Period 2, aerosol only): low and not related to the dose administered; AUC(0-t) ([2]; human, in vivo, inhaled or intranasal, 75 mg, AUC(0-t),, SD): 4220 ng·h/mL; CL/F ([2]; human, in vivo, inhaled or intranasal, 75 mg, CL/F): 136 mL/min; Cmax ([2]; human, in vivo, inhaled or intranasal, 75 mg, Cmax,, SD): 493 ng/mL; Vd/F ([2]; human, in vivo, inhaled or intranasal, 75 mg, Vdss/F): 98.7 L; Tmax [3, 16]: 1 h; half-life [3, 17]: ~3.5 h; time concentrations stay above the target of 2 μg/mL after dosing ([3]; q8h dosing, 8 h between doses): 6 h
2 | CC(C)CCCCC(=O)N[C@@H](CCN)C(=O)N[C@H](C(=O)N[C@@H](CCN)C(=O)N[C@H]1CCNC(=O)[C@H]([C@@H](C)O)NC(=O)[C@H](CCN)NC(=O)[C@H](CCN)NC(=O)[C@H](CC(C)C)NC(=O)[C@@H](CC(C)C)NC(=O)[C@H](CCN)NC1=O)[C@@H](C)O [colistin B] ({Heptanoyl(6-Me)}-[Dab]T[Dab][Dab][Dab][dL]L[Dab][Dab]T; lactam 4-C) | 1940 ng·h/mL | 3590 ng·h/mL | 3290 ng·h/mL | 5150 ng·h/mL | 96.8 mL/min | 59 mL/min | 570 ng/mL | 891 ng/mL | 26.3 L | 18.1 L | 3.45 h | 3.64 h | 0.667 h | 0.6 h | 5680 ng·h/mL | 7160 ng·h/mL | 58.2 mL/min | 1390 ng/mL | 17.3 L | 3.55 h | circulating plasma concentrations following aerosol administration alone ([2]; in vivo): no detectable concentrations; Tmax [3, 16]: 0.6 h; half-life [3, 17]: ~3.5 h
3 | CC[C@H](C)CCCCC(=O)N[C@@H](CCN)C(=O)N[C@H](C(=O)N[C@@H](CCN)C(=O)N[C@H]1CCNC(=O)[C@H]([C@@H](C)O)NC(=O)[C@H](CCN)NC(=O)[C@H](CCN)NC(=O)[C@H](CC(C)C)NC(=O)[C@@H](CC(C)C)NC(=O)[C@H](CCN)NC1=O)[C@@H](C)O [colistin] (X1-[Dab]T[Dab][Dab][Dab][dL]L[Dab][Dab]T; lactam 4-C) |  |  |  |  |  |  |  |  |  |  |  |  |  |  |  |  |  |  |  |  | subjects reporting self-limited perioral paresthesias [4]: 39%; patients with negative follow-up cultures ([5]; aerosolized colistin therapy): 37 out of 40; microbiological eradication of the causative MDRO (cases) ([5]; pneumonia patients, aerosolized colistin for a median of 14 days): 18 out of 21; subjects with reversible nephrotoxicity (elevated serum creatinine at 24 h post first dose) ([6]; Cohort 3, after three doses of IV colistin 2.5 mg/kg q8h (so in the source)): four; serum creatinine increase (absolute) [6, 18]: 0.67; serum creatinine increase (percent) [6, 18]: 95.7%; serum creatinine increase (absolute) [6, 19]: 0.3; serum creatinine increase (percent) [6, 19]: 45.5%; serum creatinine increase (absolute) [6, 20]: 0.82; serum creatinine increase (percent) [6, 20]: 82.0%; serum creatinine increase (absolute) [6, 21]: 0.69; serum creatinine increase (percent) [6, 21]: 73.4%; time over which creatinine increases resolved ([6]; Cohort 3, ±4 days): 10 days; effect on serum creatinine ([6]; dose increased from 5 mg/kg/day (Cohort 1; 2.5 mg/kg q12h) to 7.5 mg/kg/day (Cohort 2; 2.5 mg/kg q8h)): did not result in increases in serum creatinine
